Source: the supplement of paper PMC8149375
Values joined by “and” are separate entries in the source; they are usually repeats but may differ in a detail not shown here. Equal values may be shown once.

Columns and labels:
Details in all cases: treatment: drug alone; 5 days
SN12C [1] = assay: GI50, drug alone; higher = less potent
Method: (§1)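 Primary HTS: 8 RCC cell lines treated with 8 doses (up to 10 uM) of each library drug alone for 5 days; viability read by CellTiter-Glo and normalised to DMSO. GI50 was fitted with XLfit (4-parameter), AUC is the area under the dose-response curve, and minimum viability is the lowest fraction of DMSO viability across doses.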

CAKI-1 [2] = assay: GI50, drug alone; higher = less potent
Method: as §1

ACHN [3] = assay: GI50, drug alone; higher = less potent
Method: as §1

A498 [4] = assay: GI50, drug alone; higher = less potent
Method: as §1

UO-31 [5] = assay: GI50, drug alone; higher = less potent
Method: as §1

769-P [6] = assay: GI50, drug alone; higher = less potent
Method: as §1

TK-10 [7] = assay: GI50, drug alone; higher = less potent
Method: as §1

786-O [8] = assay: GI50, drug alone; higher = less potent
Method: as §1

SN12C [9] = assay: minimum viability across doses, drug alone, relative to DMSO (fraction); higher = less growth inhibition
Method: as §1

CAKI-1 [10] = assay: as above
Method: as §1

ACHN [11] = assay: as above
Method: as §1

A498 [12] = assay: as above
Method: as §1

UO-31 [13] = assay: as above
Method: as §1

769-P [14] = assay: as above
Method: as §1

TK-10 [15] = assay: as above
Method: as §1

786-O [16] = assay: as above
Method: as §1

SN12C [17] = assay: AUC of dose-response viability curve, drug alone (arbitrary (AUC of normalised viability)); higher = less growth inhibition
Method: as §1

CAKI-1 [18] = assay: as above
Method: as §1

ACHN [19] = assay: as above
Method: as §1

A498 [20] = assay: as above
Method: as §1

UO-31 [21] = assay: as above
Method: as §1

769-P [22] = assay: as above
Method: as §1

TK-10 [23] = assay: as above
Method: as §1

786-O [24] = assay: as above
Method: as §1

SMILES | GI50, drug alone (SN12C [1]) | GI50, drug alone (CAKI-1 [2]) | GI50, drug alone (ACHN [3]) | GI50, drug alone (A498 [4]) | GI50, drug alone (UO-31 [5]) [nM] | GI50, drug alone (769-P [6]) | GI50, drug alone (TK-10 [7]) | GI50, drug alone (786-O [8]) | minimum viability across doses (SN12C [9]) | minimum viability across doses (CAKI-1 [10]) | minimum viability across doses (ACHN [11]) | minimum viability across doses (A498 [12]) | minimum viability across doses (UO-31 [13]) | minimum viability across doses (769-P [14]) | minimum viability across doses (TK-10 [15]) | minimum viability across doses (786-O [16]) | AUC of dose-response viability curve (SN12C [17]) | AUC of dose-response viability curve (CAKI-1 [18]) | AUC of dose-response viability curve (ACHN [19]) | AUC of dose-response viability curve (A498 [20]) | AUC of dose-response viability curve (UO-31 [21]) | AUC of dose-response viability curve (769-P [22]) | AUC of dose-response viability curve (TK-10 [23]) | AUC of dose-response viability curve (786-O [24])
COc1cc2ncnc(Nc3ccc(F)c(Cl)c3)c2cc1NC(=O)/C=C/CN1CCCCC1 | 1360 nM | 1300 nM | 50.8 nM | 3000 nM | 2820 | 210 nM | 146 nM | 24.3 nM | 0.00743 | 0.00809 | 0.00434 | 0.0166 | 0.0173 | 0.0108 | 0.0112 | 0.0062 | 2.09 | 2.17 | 1.4 | 3.2 | 2.7 | 1.85 | 1.7 | 1.39
C[C@@H](Oc1cc(-c2cnn(C3CCNCC3)c2)cnc1N)c1c(Cl)ccc(F)c1Cl | 2430 nM | 4010 nM | 4030 nM | 9410 nM | 4170 | 6060 nM | 5340 nM | 1840 nM | 0.154 | 0.0408 | 0.225 | 0.346 | 0.169 | 0.117 | 0.239 | 0.0211 | 2.68 | 3.06 | 3.07 | 3.48 | 3.1 | 3.14 | 3.23 | 2.67
COc1cc2c(Oc3ccc(NC(=O)C4(C(=O)Nc5ccc(F)cc5)CC4)cc3F)ccnc2cc1OCCCN1CCOCC1 | 1200 nM | 575 nM | 1140 nM | 3260 nM | 2910 | 2910 nM | 1070 nM | 1320 nM | 0.0104 | 0.00629 | 0.00485 | 0.0481 | 0.0119 | 0.0122 | 0.00697 | 0.00765 | 2.34 | 2.12 | 2.6 | 3.15 | 3.04 | 2.75 | 2.37 | 2.39
O=C1NC(=O)/C(=C/c2ccc3nccc(-c4ccncc4)c3c2)S1 | 1160 nM | 412 nM | 1090 nM | 4570 nM | 498 | 6260 nM | 2290 nM | 450 nM | 0.26 | 0.125 | 0.219 | 0.341 | 0.0334 | 0.43 | 0.467 | 0.216 | 2.4 | 2.21 | 2.48 | 2.97 | 2.45 | 2.87 | 2.63 | 2.19
COCC(=O)NC/C=C/c1ccc2ncnc(Nc3ccc(Oc4ccc(C)nc4)c(C)c3)c2c1 | > 10000 nM | > 10000 nM | > 10000 nM | > 10000 nM | > 10000 | > 10000 nM | > 10000 nM | > 10000 nM | 0.739 | 0.937 | 0.61 | 1.07 | 1.11 | 0.878 | 0.661 | 0.717 | 3.1 | 3.51 | 3.39 | 4.6 | 5.09 | 3.37 | 3.07 | 2.92
CCc1cc2c(cc1N1CCC(N3CCOCC3)CC1)C(C)(C)c1[nH]c3cc(C#N)ccc3c1C2=O | > 10000 nM | 5020 nM | 5470 nM | > 10000 nM | > 10000 | > 10000 nM | > 10000 nM | > 10000 nM | 0.801 | 0.428 | 0.366 | 1.06 | 1.02 | 0.922 | 0.612 | 0.655 | 3.28 | 2.98 | 3 | 5.08 | 6.33 | 3.67 | 2.93 | 3
CN1CCN(c2cccc(Nc3nc4c(-c5ccc(S(C)(=O)=O)cc5)cccn4n3)c2)CC1 | > 10000 nM | 2310 nM | 1400 nM | > 10000 nM | > 10000 | > 10000 nM | 3530 nM | > 10000 nM | 0.599 | 0.244 | 0.293 | 1.13 | 0.707 | 0.782 | 0.298 | 0.585 | 3.13 | 2.85 | 2.65 | 4.91 | 4.6 | 3.49 | 2.82 | 3.18
CO[C@@H](C(=O)N1Cc2[nH]nc(NC(=O)c3ccc(N4CCN(C)CC4)cc3)c2C1)c1ccccc1 | 1190 nM and 929 nM | 1110 nM and 960 nM | 1300 nM and 603 nM | 8180 nM and > 10000 nM | > 10000 | 8850 nM and 8390 nM | 2640 nM and 1850 nM | 227 nM and 213 nM | 0.174 and 0.144 | 0.139 and 0.0977 | 0.176 and 0.142 | 0.516 and 0.594 | 0.7 and 0.698 | 0.463 and 0.473 | 0.174 and 0.139 | 0.00938 and 0.00426 | 2.38 and 2.35 | 2.45 and 2.51 | 2.19 and 2.18 | 3.26 and 3.77 | 3.34 and 3.7 | 3.09 and 3.4 | 2.6 and 2.61 | 1.52 and 1.67
CN(C)c1ccc(-c2nc3c(N4CCN(CC(=O)Nc5nccs5)CC4)c(Cl)cnc3[nH]2)cc1 | 5400 nM | 1260 nM | 1860 nM | > 10000 nM | 2010 | 5510 nM | > 10000 nM | 2760 nM | 0.434 | 0.115 | 0.18 | 0.622 | 0.0202 | 0.39 | 0.574 | 0.259 | 2.76 | 2.57 | 2.58 | 4.21 | 3.93 | 2.85 | 2.91 | 2.24
